Assays:
Type in all cases: cell-based, human
Settings in all cases: HT29 cell line (colon tumor), compound 10 μM, 24 hours, vs control
Gene 8 = assay: Gene modulating activity in colon cancer cells (RT-PCR RNA expression), Gene 8
Procedure: (§1) In such assays, primary cells, or tissue samples, are maintained in growth medium and are treated with compounds at a single concentration (10 μM for the data of Table 1) or at a range of concentrations (such as from 1 μM up to 100 μM). At specific times after treatment at the given concentration of test compound, cellular RNAs are isolated from the treated cells, primary cells or tumors, which RNAs are indicative of expression of selected genes, including, but not limited to, the genes used herein. The cellular RNA is then divided and subjected to analysis that detects the presence and/or quantity of specific RNA transcripts, which transcripts may then be amplified for detection purposes using standard methodologies, such as, for example, reverse transcriptase polymerase chain reaction (RT-PCR), etc. The presence or absence, or levels, of specific RNA transcripts are determined from these measurements and a metric derived for the type and degree of response of the sample to the treated compound compared to control samples. One such procedure is shown in example 8 where test compound may or may not be present.
(§2) HT29 cells are grown to a density of 10^5 cells/cm^2 in Leibovitz's L-15 medium supplemented with 2 mM L-glutamine (90%) and 10% fetal bovine serum. The cells are collected after treatment with 0.25% trypsin, 0.02% EDTA at 37° C. for 2 to 5 minutes. The trypsinized cells are then diluted with 30 ml growth medium and plated at a density of 50,000 cells per well in a 96 well plate (200 μl/well). The following day, cells are treated with either compound buffer alone, or compound buffer containing a chemical agent to be tested, for 24 hours. The media is then removed, the cells lysed and the RNA recovered using the RNAeasy reagents and protocol obtained from Qiagen. […] Reverse transcription is then carried out at 48° C. for 30 minutes. The sample is then applied to a Perlin Elmer 7700 sequence detector and heat denatured for 10 minutes at 95° C. Amplification is performed through 40 cycles using 15 seconds annealing at 60° C. followed by a 60 second extension at 72° C. and 30 second denaturation at 95° C. Data files are then captured and the data analyzed with the appropriate baseline windows and thresholds.
(§3) For testing of the effects of a compound of Table 1, each compound was present at a concentration of 10 μM in the culture medium.
(§4) The quantitative difference between the target and reference genes is then calculated and a relative expression value determined for all of the samples used. This procedure is then repeated for each of the target genes in a given signature, or characteristic, set and the relative expression ratios for each pair of genes is determined (i.e., a ratio of expression is determined for each target gene versus each of the other genes for which expression is measured, where each gene's absolute expression is determined relative to the reference gene for each compound, or chemical agent, to be screened). The samples are then scored and ranked according to the degree of alteration of the expression profile in the treated samples relative to the control. The overall expression of the set of genes relative to the controls, as modulated by one chemical agent relative to another, is also readily ascertained. Chemical agents having the most effect on a given gene, or set of genes, are considered the most therapeutic or anti-neoplastic, depending on the tissues being studied. In each case, the agent was present in the cell culture at a concentration of ten micromolar.
(§5) The sets of genes, or signature sets, useful in the methods of the invention disclosed herein represent a set of genes expressed at a higher level in a cancer cell line derived from colon but not expressed at a higher level in normal colon (for example, genes 1, 2, 4-10 for the data of Table 1) or whose expression is higher in normal cells (for example, genes 3 and 11 for the data of Table 1) relative to the cancer cells. […]

Gene 4 = assay: Gene modulating activity in colon cancer cells (RT-PCR RNA expression), Gene 4
Procedure: as §1, §2, §3, §4, §5

Gene 3 = assay: Gene modulating activity in colon cancer cells (RT-PCR RNA expression), Gene 3
Procedure: as §1, §2, §3, §4, §5

Gene 5 = assay: Gene modulating activity in colon cancer cells (RT-PCR RNA expression), Gene 5
Procedure: as §1, §2, §3, §4, §5

Gene 2 = assay: Gene modulating activity in colon cancer cells (RT-PCR RNA expression), Gene 2
Procedure: as §1
For example, Gene 2 was a gene that encodes a kallikrein. Tissue or glandular kallikreins are members of a large and highly conserved family of serine proteases that are central to many physiological processes. They are secreted protein-cleaving enzymes that process for example kininogen (local blood flow, sodium balance, inflammation, cell proliferation), growth factors (EGF, NGF, vasoactive peptide), or other substrates. The prostate antigens hK2 and PSA are members of this family. Diseases in which kallikreins have been implicated include acute pancreatitis, inflammatory arthritis and inflammatory bowel disease, sepsis, enterocolitis, arterial and salt-sensitive hypertension, blood coagulation disorders, scorpion and snake evenomation, infections and cancer. Thus, the chemical agents disclosed herein find use in the treatment and/or prevention of any of these diseases.
as §2, §3
The quantitative difference between the target and reference genes is then calculated and a relative expression value determined for all of the samples used. This procedure is then repeated for each of the target genes in a given signature, or characteristic, set and the relative expression ratios for each pair of genes is determined (i.e., a ratio of expression is determined for each target gene versus each of the other genes for which expression is measured, where each gene's absolute expression is determined relative to the reference gene for each compound, or chemical agent, to be screened). […]

Gene 10 = assay: Gene modulating activity in colon cancer cells (RT-PCR RNA expression), Gene 10
Procedure: as §1, §2, §3, §4, §5

Gene 9 = assay: Gene modulating activity in colon cancer cells (RT-PCR RNA expression), Gene 9
Procedure: as §1, §2, §3, §4, §5

Gene 7 = assay: Gene modulating activity in colon cancer cells (RT-PCR RNA expression), Gene 7
Procedure: as §1, §2, §3, §4, §5

Gene 1 = assay: Gene modulating activity in colon cancer cells (RT-PCR RNA expression), Gene 1
Procedure: as §1, §2, §3, §4, §5

Gene 6 = assay: Gene modulating activity in colon cancer cells (RT-PCR RNA expression), Gene 6
Procedure: as §1, §2, §3, §4, §5

Gene 11 = assay: Gene modulating activity in colon cancer cells (RT-PCR RNA expression), Gene 11
Procedure: as §1, §2, §3
as §4, with “In each case, the agent was present in the cell culture at a concentration of ten micromolar.” left out

SMILES	Gene 8 Folds of up (+) or down (−) regulatlon (Gene 8) [Folds]	Gene 4 Folds of up (+) or down (−) regulatlon (Gene 4) [Folds]	Gene 3 Folds of up (+) or down (−) regulatlon (Gene 3) [Folds]	Gene 5 Folds of up (+) or down (−) regulatlon (Gene 5) [Folds]	Gene 2 Folds of up (+) or down (−) regulatlon (Gene 2) [Folds]	Gene 10 Folds of up (+) or down (−) regulatlon (Gene 10) [Folds]	Gene 9 Folds of up (+) or down (−) regulatlon (Gene 9) [Folds]	Gene 7 Folds of up (+) or down (−) regulatlon (Gene 7) [Folds]	Gene 1 Folds of up (+) or down (−) regulatlon (Gene 1) [Folds]	Gene 6 Folds of up (+) or down (−) regulatlon (Gene 6) [Folds]	Gene 11 Folds of up (+) or down (−) regulatlon (Gene 11) [Folds]
CCCN(C(=O)c1ccccc1)C1CCCC1Sc1ccccc1 (stereo not drawn) [AV-221]	1.6	1.4	−3.5	1.5	1.4	−6.5	1.2	90.5	64.0	−1.1	
CC(C)CN(C(=O)c1ccccc1)C1CCCC1Sc1ccccc1 (stereo not drawn) [AV-96]	2.8	2.8	3.2	2.8	2.8	1.9	2.5	5.3	3.5	−4.9	3.7
CN(C(=O)C1CCC1)C1CCCCC1Sc1ccccc1 (stereo not drawn) [AV-283]	−1.7	−1.7	−4.6	−1.5	−1.7	−3.0	−3.7	−3.7	−2.1	−3.5	−34.3
O=C(Nc1ccc(-c2ccccc2)cc1)N(Cc1ccccc1)C1CCCC1Sc1ccccc1 (stereo not drawn) [AV-1030]	−2.6	1.1	−1.1	2.5	3.7	−2.5	−2.6	−1.1	2.1	1.4	−4.6
CCCN(C(=O)Nc1ccc(-c2ccccc2)cc1)C1COCC1SC (stereo not drawn) [AV-916]	−3.0	−1.3	−8.0	−1.2	−1.1	−8.6	−6.5	−1.2	−2.1	1.0	−3.7
COCCN(C(=O)COc1ccccc1)C1CCCC1Sc1ccccc1 (stereo not drawn) [AV-1241]	2.1	2.0	29.9	1.2	1.7	13.0	9.2	26.0	1.9	2.8	27.9
CSC1CCCC1NC(=O)Nc1cccc(Cl)c1 (stereo not drawn) [AV-988]	1.7	1.9	−11.3	1.9	2.3	−4.6	1.3	1.2	2.6	2.0	

Reference: patent US6548539B1, “Agents for regulation of colon cancer gene expression” (Avalon Pharmaceuticals, priority 2001, dated 2003)
